The record followed here is patent publication US9662338B2, “Formulations of viloxazine” (Supernus Pharmaceuticals, Inc., priority 2012, dated 2017).

For this assay the following is noted: steady state plasma levels at both 150 mg and 300 mg total daily dose; IR capsules TID. How it is done: A randomized, double blind, multicenter, placebo controlled clinical study was conducted to evaluate the efficacy of viloxazine in adults with ADHD. […] Subjects not tolerating the 300 mg/day dose were allowed at any time of the treatment phase to down titrate to 1 capsule TID for a total daily dose of 150 mg viloxazine base. […] Plasma samples were obtained up to six hours following dosing.

SMILES strings stand for the structures.

`CCOc1ccccc1OCC1CNCCO1` (racemic) [viloxazine, (RS)-2-[(2-ethoxyphenoxy)methyl]morpholine]: the “clinical efficacy in adults with ADHD” value is “demonstrated clinical efficacy”.
